# System: rabbit skeletal myofibrils (approximately 90% fast fibers)
# Assay: Activation of fast skeletal myofibrils (PUMA coupled-enzyme ATPase assay, AC1.4)
# Format: biochemical
# Conditions: Table 2; concentration at which the compound increased enzymatic activity by 40%; calcium at pCa25
row,SMILES,Mean AC1.4
1,"CC(C)(CNc1nc(-c2ccc(CO)cc2)ns1)c1ccc(F)cc1 [[4-(5-{[2-(4-fluorophenyl)-2-methylpropyl]amino}-1,2,4-thiadiazol-3-yl)phenyl]methan-1-ol]",B (B=1-10 uM)
2,"CNC(=O)c1ccc(-c2nsc(NCC(C)(C)c3ccc(F)cc3)n2)cn1 [[5-(5-{[2-(4-fluorophenyl)-2-methylpropyl]amino}(1,2,4-thiadiazol-3-yl))(2-pyridyl)]-N-methylcarboxamide]",B (B=1-10 uM)
3,"COc1cccc(Cc2nsc(NC[C@H](C)c3ccc(F)cc3)n2)c1 [[(2R)-2-(4-fluorophenyl)propyl]{3-[(3-methoxyphenyl)methyl](1,2,4-thiadiazol-5-yl)}amine]",B (B=1-10 uM)
4,"C[C@H](CNc1nc(-c2cn[nH]c2)ns1)c1ccc(F)cc1 [[(2S)-2-(4-fluorophenyl)propyl](3-pyrazol-4-yl(1,2,4-thiadiazol-5-yl))amine]",B (B=1-10 uM)
5,"COc1cccc(Cc2nsc(NC[C@@H](C)c3ccc(F)cc3)n2)c1 [[(2S)-2-(4-fluorophenyl)propyl]{3-[(3-methoxyphenyl)methyl](1,2,4-thiadiazol-5-yl)}amine]",A (A=<1 uM)
6,"COc1cccc(Cc2nsc(NCc3ccc(Cl)c(Cl)c3)n2)c1 [[(3,4-dichlorophenyl)methyl]{3-[(3-methoxyphenyl)methyl](1,2,4-thiadiazol-5-yl)}amine]",D (D=>20 uM)
7,"Fc1ccc(Cc2nsc(NCc3ccc(Cl)c(Cl)c3)n2)cc1 [[(3,4-dichlorophenyl)methyl]{3-[(4-fluorophenyl)methyl])1,2,4-thiadiazol-5-yl)}amine]",D (D=>20 uM)
8,"COc1cccc(Cc2nsc(NCc3ccc(Cl)cc3)n2)c1 [[(4-chlorophenyl)methyl]{3-[(3-methoxyphenyl)methyl](1,2,4-thiadiazol-5-yl)}amine]",D (D=>20 uM)
9,"Clc1ccc(CNc2nc(Cc3ccc(Cl)cc3)ns2)cc1 [[(4-chlorophenyl)methyl]{3-[(4-chlorophenyl)methyl](1,2,4-thiadiazol-5-yl)}amine]",D (D=>20 uM)
10,"Fc1ccc(Cc2nsc(NCc3ccc(Cl)cc3)n2)cc1 [[(4-chlorophenyl)methyl]{3-[(4-fluorophenyl)methyl])1,2,4-thiadiazol-5-yl)}amine]",D (D=>20 uM)
11,"CN(C)Cc1nsc(NCC(C)(C)c2ccc(F)cc2)n1 [[(5-{[2-(4-fluorophenyl)-2-methylpropyl]amino}(1,2,4-thiadiazol-3-yl))methyl]dimethylamine]",D (D=>20 uM)
12,"CNCc1nsc(NCC(C)(C)c2ccc(F)cc2)n1 [[(5-{[2-(4-fluorophenyl)-2-methylpropyl]amino}(1,2,4-thiadiazol-3-yl))methyl]methylamine]",D (D=>20 uM)
13,"CCOC(=O)CCc1nsc(NCC(C)(C)c2ccc(F)cc2)n1 [ethyl 3-(5-{[2-(4-fluorophenyl)-2-methylpropyl]amino}-1,2,4-thiadiazol-3-yl)propanoate]",B (B=1-10 uM)
14,"CCOC(=O)/C=C/c1nsc(NCC(C)(C)c2ccc(F)cc2)n1 [ethyl (2E)-3-(5-{[2-(4-fluorophenyl)-2-methylpropyl]amino}(1,2,4-thiadiazol-3-yl))prop-2-enoate]",D (D=>20 uM)
15,"COC(=O)CNc1nc(-c2cccc(C#N)c2)ns1 [methyl 2-{[3-(3-cyanophenyl)-1,2,4-thiadiazol-5-yl]amino}acetate]",D (D=>20 uM)
16,"COC(=O)N1CCN(CCc2nsc(NCC(C)(C)c3ccc(F)cc3)n2)CC1 [methyl 4-[2-(5-{[2-(4-fluorophenyl)-2-methylpropyl]amino}-1,2,4-thiadiazol-3-yl)ethyl]piperazinecarboxylate]",D (D=>20 uM)
17,"COC(=O)N1CCN(Cc2nsc(NCC(C)(C)c3ccc(F)cc3)n2)CC1 [methyl 4-[(5-{[2-(4-fluorophenyl)-2-methylpropyl]amino}-1,2,4-thiadiazol-3-yl)methyl]piperazinecarboxylate]",C (C=10-20 uM)
18,"CC(C)(C)OC(=O)N1CCN(Cc2nsc(NCC(C)(C)c3ccc(F)cc3)n2)CC1 [tert-butyl 4-[(5-{[2-(4-fluorophenyl)-2-methylpropyl]amino}-1,2,4-thiadiazol-3-yl)methyl]piperazinecarboxylate]",D (D=>20 uM)
19,"CN(C)CCNc1nsc(NCC(C)(C)c2ccc(F)cc2)n1 [{2-[(5-{[2-(4-fluorophenyl)-2-methylpropyl]amino}(1,2,4-thiadiazol-3-yl))amino]ethyl}dimethylamine]",D (D=>20 uM)
20,"COc1cccc(Cc2nsc(NCCc3nc(C)cs3)n2)c1 [{3-[(3-methoxyphenyl)methyl](1,2,4-thiadiazol-5-yl)}[2-(4-methyl(1,3-thiazol-2-yl))ethyl]amine]",D (D=>20 uM)
21,"COc1cccc(Cc2nsc(NCCc3cccc(C(F)(F)F)c3)n2)c1 [{3-[(3-methoxyphenyl)methyl](1,2,4-thiadiazol-5-yl)}{2-[3-(trifluoromethyl)phenyl]ethyl}amine]",D (D=>20 uM)
22,"Fc1ccc(Cc2nsc(NCCc3ccccn3)n2)cc1 [{3-[(4-fluorophenyl)methyl](1,2,4-thiadiazol-5-yl)}(2-(2-pyridyl)ethyl)amine]",D (D=>20 uM)
23,"Fc1ccc(Cc2nsc(NCCc3cccnc3)n2)cc1 [{3-[(4-fluorophenyl)methyl](1,2,4-thiadiazol-5-yl)}(2-(3-pyridyl)ethyl)amine]",D (D=>20 uM)
24,"Fc1ccc(Cc2nsc(NCCc3ccncc3)n2)cc1 [{3-[(4-fluorophenyl)methyl](1,2,4-thiadiazol-5-yl)}(2-(4-pyridyl)ethyl)amine]",D (D=>20 uM)
25,"Fc1ccc(Cc2nsc(NCCc3ccccc3)n2)cc1 [{3-[(4-fluorophenyl)methyl](1,2,4-thiadiazol-5-yl)}(2-phenylethyl)amine]",D (D=>20 uM)
26,"CC(C)CCNc1nc(Cc2ccc(F)cc2)ns1 [{3-[(4-fluorophenyl)methyl](1,2,4-thiadiazol-5-yl)}(3-methylbutyl)amine]",D (D=>20 uM)
27,"COc1ccc(CCNc2nc(Cc3ccc(F)cc3)ns2)cc1 [{3-[(4-fluorophenyl)methyl](1,2,4-thiadiazol-5-yl)}[2-(4-methoxyphenyl)ethyl]amine]",D (D=>20 uM)
28,"Cc1csc(CCNc2nc(Cc3ccc(F)cc3)ns2)n1 [{3-[(4-fluorophenyl)methyl](1,2,4-thiadiazol-5-yl)}[2-(4-methyl(1,3-thiazol-2-yl))ethyl]amine]",D (D=>20 uM)
29,"CC(=O)OCC(=O)NCCCc1nsc(NCC(C)(C)c2ccc(F)cc2)n1 [{N-[3-(5-{[2-(4-fluorophenyl)-2-methylpropyl]amino}-1,2,4-thiadiazol-3-yl)propyl]carbamoyl}methyl acetate]",C (C=10-20 uM)
30,"Fc1cccnc1C1(CNc2nc(-c3ccccc3)ns2)CCC1 [{[(3-fluoro(2-pyridyl))cyclobutyl]methyl}(3-phenyl(1,2,4-thiadiazol-5-yl))amine]",B (B=1-10 uM)

# Same assay, conditions: Table 3; concentration at which the compound increased enzymatic activity by 40%; calcium at pCa25
row,SMILES,Mean AC1.4
1,"COC(=O)c1ccc(F)c(-c2nnc(NC[C@]3(c4ncccc4F)C[C@H](F)C3)s2)c1 [methyl 4-fluoro-3-(5-((3-fluoro-1-(3-fluoropyridin-2-yl)cyclobutyl)methylamino)-1,3,4-thiadiazol-2-yl)benzoate]",B (B=1-10 uM)

# Same assay, conditions: Table 4; concentration at which the compound increased enzymatic activity by 40%; calcium at pCa25
row,SMILES,Mean AC1.4
1,CCOC(=O)c1ccc2nc(NCC(C)(C)c3ccc(F)cc3)sc2c1 [ethyl 2-(2-(4-fluorophenyl)-2-methylpropylamino)benzo[d] thiazole-6-carboxylate],B (B=1-10 uM)

# Source: patent publication US9278962B2 (Cytokinetics, Inc., priority 2011, dated 2016)
